Measurements: patent US20090247466A1, “NEUROPROTECTIVE INTEGRIN-BINDING PEPTIDE AND ANGIOPOIETIN-1 TREATMENTS” (University of Louisville Research Foundation, priority 2008, published 2009)
Ends that are not written are not given here.

What was measured:
[1] = tested on: C57BL/6 mice with spinal cord contusion at T9; assay: Inflammation: CD45 and CD68 immunostained area after spinal cord contusion; type: in vivo
Method: Adjacent sections at each mm level were processed for double- or triple immunofluorescent staining to detect CD45 (leukocytes), CD68 (activated microglia/macrophages), PECAM1 (endothelial cells), αv, β3 or α5β1 integrin, or in some cases laminin (to define the so-called heterodomain or area of tissue loss). Slides were warmed for 20 minutes on a slide warmer, a ring of wax applied around the sections with a PAP pen (Invitrogen™, Carlsbad, Calif.) and the slides rinsed in 0.1 M Tris-buffered saline (TBS) for 10 min. […] To measure the volume of tissue loss as determined by laminin staining in the horizontal sections, the sections were processed using an ABC-DAB staining protocol.
Sections were examined using a Leica DMIRE2 brightfield and fluorescence microscope and images digitized with an attached Spot RTKE camera (Diagnostics Inc., Sterling Height, Mich.). EC, CD45, CD68 and PECAM staining through the entire plane of the transverse sections was digitized using a 5× objective and the area occupied by the staining calculated for the three sections per rostro-caudal level by using the threshold feature of Scion Image software (Scion Corporation, Frederick, Md.). […] The area of LEA was determined with Scion Image. To provide a measure of the number of blood vessels, the number of LEA-positive vessels intersecting 100 μm spaced horizontal (5) and vertical (6) lines were counted in each image. […] The software calculated the volume based on the section interval and the area per section and this was expressed as a percentage of the total 10 mm segment. […]

[2] = tested on: C57BL/6 mice with spinal cord contusion at T9; assay: Overground locomotor function, Basso Mouse Scale (BMS), after spinal cord contusion; type: in vivo
Method: To determine whether C16 had lasting neuroprotective effects, mice received daily injections with vehicle (n=8) or 100 μg/day C16 (n=9) for 14 days. The treatment was started 4 hours after the spinal cord injury consistent with the time it takes to diagnose most injured humans in the developed world. These mice were evaluated every week by BMS and were euthanized after 6 weeks.
Functional recovery from the spinal cord contusion was determined weekly by open-field overground locomotor performance using the Basso Mouse Scale (BMS; Basso et al., 2006, J Neurotrauma 23:635-659), with scores ranging from 0 (complete paralysis) to 9 (normal mobility). Left and right sides are scored separately and averaged for each mouse. Weight bearing is seen at a score of 5 but not at 4. Locomotor function was measured by placing the mouse for 4 min in the center of a circular enclosure (90 cm in diameter, 7 cm wall height) made of molded plastic with a smooth, non-slip floor. Before each evaluation, the mice were examined carefully for perineal infections, wounds in the limbs, or tail and foot autophagia, as they could influence stepping. Such mice were excluded from the BMS test. The mice were tested for baseline values before surgery. The mice in the 7-day experiments were tested on the day of euthanasia and the mice in the 6 week chronic group were tested every week starting on day 8 or 9 after the contusion.
Adult C57B1/6 mice received a contusion injury at the thoracic spine level 9. Starting 4 hours after the injury, the mice received daily intravenous injections of control vehicle, Ang-1 or Ang-1 plus C16 (all at 100 μg/day) for 7 days.
Functional recovery after SCI was determined weekly by open-field overground locomotor performance using the BMS (Basso et al., J Neurotrauma, 23(5), 635-659 (2006)). Before each evaluation, the mice were examined carefully for perineal infections, wounds in the limbs, or tail and foot autophagia, as they could influence stepping. Such mice were excluded from the BMS test. The mice were acclimatized to the testing area for at least 25 minutes, including individually handling for at least 5 minutes, for 3 days and then tested for baseline values before surgery. The mice in the 7-day experiments were tested on the day of euthanasia and the mice in the 6 week chronic group were tested every week starting on day 8 or 9 after the contusion.

[3] = tested on: C57BL/6 mice with spinal cord contusion at T9; assay: White matter sparing at the injury epicenter (eriochrome cyanine myelin staining) after spinal cord contusion; type: in vivo
Method: These mice were tested for overground locomotion using the Basso Mouse Scale (BMS) before the contusion and on the day of euthanasia.
To label endothelial cells of perfused blood vessels, 4 of the vehicle and 4 of the C16 mice received an intravenous injection of the lectin LEA 20 minutes before euthanasia.
To determine whether […] C16 would be neuroprotective, vehicle (n=8) or 100 μg/day C16 (n=9) was injected over 7 days. These mice were tested using the BMS before the contusion and on the last day.
To determine whether C16 had lasting neuroprotective effects, mice received daily injections with vehicle (n=8) or 100 μg/day C16 (n=9) for 14 days. […] These mice were evaluated every week by BMS and were euthanized after 6 weeks. […]
To detect myelin in white matter tracts, one of every five of the transverse sections at each rostro-caudal 1 mm level were stained with a modified eriochrome cyanine (EC) staining protocol (Rabchevsky et al., 2001, J Neurotrauma 18:513-522). […] The injury epicenter was determined for each mouse by the rostro-caudal level that contained the least amount of spared myelin per transverse section. […]
Sections were examined using a Leica DMIRE2 brightfield and fluorescence microscope and images digitized with an attached Spot RTKE camera (Diagnostics Inc., Sterling Height, Mich.). […] The area of LEA was determined with Scion Image. […]

[4] = tested on: C57BL/6 mice with spinal cord contusion at T9; assay: Perfused (LEA lectin-labeled) blood vessels in the injury penumbra after spinal cord contusion; type: in vivo; conditions: single i.v. injection immediately after injury; 24 hours
Method: Normal (n=3) and 7 day sham operated mice (n=5) also received intravenous LEA injections.
To pre-label perfused blood vessels, 100 μg in 100 μl of FITC-conjugated LEA (Lectin from Lycopersicon esculentum; Sigma, St. Louis, Mo.) was injected into the other jugular vein 30 minutes before euthanasia.

[5] = tested on: C57BL/6 mice with spinal cord contusion at T9; assay: Blood vessel permeability: luciferase extravasated into the spinal cord at the injury site; type: in vivo
Method: Increased permeability contributes to tissue loss following SCI and was measured here by the amount of luciferase that extravasated into the spinal cord at the injury site after i.v. injection 20 minutes before analysis.

[6] = tested on: peripheral leukocytes; assay: Blood cell counts after 7 days of treatment; type: in vivo, mice; set-up: key to Leukocytes eosinophils / Leukocytes basophils / Erythrocytes / Leukocytes total / Leukocytes neutrophils / Leukocytes lymphocytes / Leukocytes monocytes: N = within the normal range
Method: (§1) To determine potential effects of C16 on the number of peripheral leukocytes, 1 ml blood was drawn from the heart just before perfusion-fixation in mice that had been treated with vehicle (n=3) or C16 (n=2) for 7 days treated. The blood was collected in EDTA-coated tubes and blood counts were performed by Drew Scientific Inc. (Oxford, Conn.).
as §1, with “vehicle” for “vehicle (n=3)”, “C16” for “C16 (n=2)”, “days.” for “days treated.”

[7] = Blood cell counts after 7 days of treatment; type: in vivo, mice; set-up: key to Leukocytes eosinophils / Leukocytes basophils / Erythrocytes / Leukocytes total / Leukocytes neutrophils / Leukocytes lymphocytes / Leukocytes monocytes: N = within the normal range; conditions: daily C16 for 7 days after T9 contusion; individual mice A, B
Method: as §1
as §1, with “vehicle” for “vehicle (n=3)”, “C16” for “C16 (n=2)”, “days.” for “days treated.”

[8] = tested on: monocytic THP-1 cells across human aortic endothelial cells; assay: Transendothelial migration assay; type: cell-based; conditions: SP3 600 μM; absence or presence of TNFα
Method: Human aortic endothelial cells (Lonza, Wakersville, Md.) were plated on permeable filters in Transwell® culture plates (Costar, Cambridge, Mass.) at 4×10^4 cells per well. They were grown for 72-96 hours to reach confluency at 37° C. in Dulbecco's modified Eagle's medium Ham's F-12 (DMEM F-12; BioWhittaker, Walkersville, Md.) plus EGM-2 growth factor supplements (EGM-2 SingleQuots™ from Lonza Walkersville Inc, containing hydrocortisone, hEGF, FBS, VEGF, hFGF-B, R3-IGF-1, ascorbic acid, heparin and gentamicin/amphotericin-B) and 10-20% fetal calf serum. Afterwards, the inner chamber of the Transwell® system was loaded with 2×10^5 monocytic THP-1 cells (American Type Culture Collection, Manassas, Va.) and preincubated in medium with or without 15 ng/ml of TNF-α (PeproTech, Rocky Hill, N.J.) for 5 hr at 37° C. C16 peptide was added into the medium of the inner chamber at 25, 50, 100, 200, 400, 600 μM, and SP3 was added at 600 μM. […] The monocytic THP-1 cells were allowed to transmigrate for 6 h at 37° C. and the number of THP-1 cells that crossed endothelial cell layer was counted. […]
Human aortic ECs (BioWhittaker, Walkersville, Md.) were plated on permeable filters in Transwell culture plates (Costar, Cambridge, Mass.) at 4×10^4 cells per well. […] THP-1 cells were allowed to transmigrate for 6 h at 37° C. and the number of THP-1 cells that crossed EC layer was counted. […]

[9] = target: human αvβ3 integrin (human) (UniProt P06756); assay: cell-based or functional assay
[10] = daily C16 for 7 days after T9 contusion, individual mice A, B

human αvβ3 integrin (human), sequence (P06756 31-1048, chain 1 of 2): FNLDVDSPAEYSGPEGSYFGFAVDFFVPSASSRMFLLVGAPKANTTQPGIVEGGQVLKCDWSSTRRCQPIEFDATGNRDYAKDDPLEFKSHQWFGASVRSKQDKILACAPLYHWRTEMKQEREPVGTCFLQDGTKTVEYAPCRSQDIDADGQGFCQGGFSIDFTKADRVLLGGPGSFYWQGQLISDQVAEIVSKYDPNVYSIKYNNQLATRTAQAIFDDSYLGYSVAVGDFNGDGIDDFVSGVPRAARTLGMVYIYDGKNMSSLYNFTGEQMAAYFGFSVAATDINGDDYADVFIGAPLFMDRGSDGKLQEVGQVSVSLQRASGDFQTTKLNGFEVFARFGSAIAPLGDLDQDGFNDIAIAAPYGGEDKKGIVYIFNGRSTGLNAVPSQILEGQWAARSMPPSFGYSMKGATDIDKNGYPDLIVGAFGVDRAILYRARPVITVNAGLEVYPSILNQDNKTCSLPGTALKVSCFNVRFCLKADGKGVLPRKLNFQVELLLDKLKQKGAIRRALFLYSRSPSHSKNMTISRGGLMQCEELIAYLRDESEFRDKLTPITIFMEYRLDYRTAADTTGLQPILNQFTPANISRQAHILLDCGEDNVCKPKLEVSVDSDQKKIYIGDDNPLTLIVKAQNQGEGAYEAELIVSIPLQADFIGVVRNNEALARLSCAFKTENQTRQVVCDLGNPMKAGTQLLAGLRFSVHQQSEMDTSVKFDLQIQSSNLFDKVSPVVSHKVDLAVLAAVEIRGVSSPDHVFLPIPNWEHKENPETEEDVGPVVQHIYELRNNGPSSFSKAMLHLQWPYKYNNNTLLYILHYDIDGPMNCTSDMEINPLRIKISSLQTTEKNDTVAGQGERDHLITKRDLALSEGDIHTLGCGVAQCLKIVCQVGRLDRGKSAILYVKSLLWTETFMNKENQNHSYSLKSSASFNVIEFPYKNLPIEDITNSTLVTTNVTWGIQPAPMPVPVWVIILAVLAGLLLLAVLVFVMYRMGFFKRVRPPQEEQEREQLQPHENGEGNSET
human αvβ3 integrin (human), sequence (P05106 27-788, chain 2 of 2, further chain): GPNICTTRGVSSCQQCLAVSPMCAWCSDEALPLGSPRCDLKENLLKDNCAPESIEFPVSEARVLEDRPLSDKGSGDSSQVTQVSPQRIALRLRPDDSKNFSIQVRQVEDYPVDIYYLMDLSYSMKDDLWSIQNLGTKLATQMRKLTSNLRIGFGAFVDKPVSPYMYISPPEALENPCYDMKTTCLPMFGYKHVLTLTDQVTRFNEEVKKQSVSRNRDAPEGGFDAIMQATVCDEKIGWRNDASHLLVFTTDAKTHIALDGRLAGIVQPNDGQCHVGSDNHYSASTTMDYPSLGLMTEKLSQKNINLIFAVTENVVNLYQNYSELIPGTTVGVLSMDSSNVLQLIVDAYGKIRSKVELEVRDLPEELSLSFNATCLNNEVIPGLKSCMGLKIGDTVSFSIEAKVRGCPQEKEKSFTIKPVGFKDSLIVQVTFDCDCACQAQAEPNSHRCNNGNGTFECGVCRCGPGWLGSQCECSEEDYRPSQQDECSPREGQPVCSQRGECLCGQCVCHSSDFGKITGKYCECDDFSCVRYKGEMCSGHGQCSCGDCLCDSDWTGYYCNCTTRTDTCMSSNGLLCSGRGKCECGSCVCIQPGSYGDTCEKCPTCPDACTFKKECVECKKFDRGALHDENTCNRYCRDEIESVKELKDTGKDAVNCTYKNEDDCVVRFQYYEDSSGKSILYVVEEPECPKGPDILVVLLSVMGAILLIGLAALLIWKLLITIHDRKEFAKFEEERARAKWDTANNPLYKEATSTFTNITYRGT

**Q.** Which results are given for “Angiopoietin-1 tetra-fibrinogen-like domain [Ang-1]”?
**A.** smaller area of CD68 staining than vehicle treated mice ([1]; 24 hours, 3 mm rostral to 3 mm caudal from the epicenter): ~25%; inflammation (CD45, CD68 area) compared with vehicle ([1]; all post-injury times, 3 mm rostral to 3 mm caudal from the epicenter): reduced inflammation; BMS score (9 point scale) ([2]; 100 μg/day i.v. for 7 days starting 4 hours after injury, behavioral analyses over 6 weeks): 5.5; mice with a BMS score of 7 or above ([2]; i.v. for 7 days, at 43 days): 4/14; mice with a BMS score of 7 and above ([2]; last two weeks of testing (5 and 6 weeks after injury)): 28%; cross-sectional area of white matter at the epicenter compared with vehicle ([3]; 7 and 42 day post-injury times): greater; number of LEA-positive blood vessels in the penumbra, of sham [4]: 40%; luciferase values versus vehicle ([5]; 24 hours following SCI): not different; luciferase values, of vehicle ([5]; 72 hours following SCI): 55±13%

**Q.** For “KAFDITYVRLKF [C16, KAFDITYVRLKF (SEQ ID NO:2)]”, which Leukocytes basophils [6, 10] is on record?
**A.** N

**Q.** What about the Leukocytes eosinophils [6, 10] of the same substance?
**A.** N

**Q.** And the Leukocytes lymphocytes [6, 10]?
**A.** N

**Q.** What about the Leukocytes monocytes [6, 10] of the same substance?
**A.** N

**Q.** And the Leukocytes neutrophils [6, 10]?
**A.** N

**Q.** And the Leukocytes total [6, 10]?
**A.** N

**Q.** What about the Thrombocytes [6, 10] of the same substance?
**A.** low

**Q.** What about the white cell counts ([6]; treated for 7 days) of the same substance?
**A.** within normal range

**Q.** And the Erythrocytes [7]?
**A.** N

**Q.** With “RFSVAVSSHYPFWSR (SEQ ID NO:3) [SP3, reference compound]” as the substance, how does the “effect on the inflammatory response” value ([1]; control peptide 100 μg/day, at 7 days) read?
**A.** no significant effect

**Q.** What about the BMS score ([2]; 100 μg/day i.v. daily for 7 days, 7 days following injury) of the same substance?
**A.** 0.7±0.3

**Q.** What about the “effect on monocyte transmigration” value [8] of the same substance?
**A.** no significant effect

**Q.** What about the “white matter cross-sectional area at the injury epicenter, percent of sham-operated mice” value ([3]; 100 μg/day i.v. daily for 7 days, 7 days after contusion) of the same substance?
**A.** 30±5%

**Q.** Which monocyte (THP-1) transmigration across an endothelial cell layer, blocking antibody, with TNFα, without C16 [9] does the source give for “azide-free blocking antibody against human αvβ3 (Cat# MAB1976Z, Chemicon; also known as LM609)” here?
**A.** 64%

**Q.** And the monocyte transmigration across an EC layer, reduction by blocking antibody [9]?
**A.** 36%
